Measurements published in patent US12053452B2 (priority 2021, dated 2024).
Where two headings read alike, the source gives them in different places.

Key:
[1] = rats, cited from earlier work; for Cmax (maximum MDMA concentration): 2 mg/kg; for Cmax: 10 mg/kg
BTBR mice = experiment: Sociability test, BTBR; type: in vivo; settings: 3.0 mg/kg IP
Experimental: This assay was conducted in adult male C57 and BTBR mice (n=6 per group) in a dedicated conditioning room where ambient light, sound, and human contact were tightly controlled. Social preference chambers consist of two polycarbonate boxes (13.5 cm wide×22.5 cm tall×31.0 cm deep), floored with rough-textured black ABS plastic, and connected to one another by a 1.25″ PVC T-junction. An infrared photobeam emitter/detector array is mounted at each intersection of the T-junction and each preference compartment, and as a mouse traversed the apparatus, it would break the photobeam upon entry to or exit from each preference compartment. Beam breaks started or stopped a counter on an interfaced computer, allowing automated collection of time spent in each compartment. At the end of each test, data were reported as time (in seconds) spent in each compartment, the number of entries into each compartment, and the average time spent in each compartment following an entry. Social preference tests were conducted in an iterative manner, with each test subject completing four distinct phases as described below. Between testing sessions, chambers were sanitized by wiping the insides with a disinfectant product provided by the UAMS Department of Laboratory Animal Medicine. […]

Row | Structure (SMILES) | Cmax (maximum MDMA concentration) ([1]; intraperitoneal) | Cmax (maximum MDMA concentration) ([1]; oral) | Cmax (maximum MDMA concentration) ([1]; subcutaneous) | Cmax ([1]; intraperitoneal) | Cmax ([1]; oral) | Cmax ([1]; subcutaneous) | sociability (time spent with the stranger mouse vs dummy) (BTBR mice)
1 | CNC(C)Cc1ccc2c(c1)OCO2 (racemic) [racemic MDMA, 1-(1,3-benzodioxol-5-yl)-N-methylpropan-2-amine] | 210 ng/mL | 46 ng/mL | 196 ng/mL | 2257 ng/mL | 966 ng/mL | 1130 ng/mL | –
2 | CN[C@@H](C)Cc1ccc2c(c1)OCO2 [S(+)-MDMA, (2S)-1-(1,3-benzodioxol-5-yl)-N-methylpropan-2-amine] | – | – | – | – | – | – | did not alter sociability
